This assay has as its target RNA samples (Chi18 or HCV IRES). Kind of assay: Droplet Digital Polymerase Chain Reaction (ddPCR) assay of RNA protection. The settings on record: 50 mM Tris buffer pH 11.4, 16 hrs at 30° C. for Chi18 or 42° C. for HCV; table does not say which RNA; 600 µM to 0.018 µM compound, 2% DMSO; read-out: EC50 Values Obtained from the ddPCR Assay. It is filed as biochemical. On the procedure:
The ddPCR assays measured RNA integrity by converting intact RNA to cDNA by reverse transcription, then performing digital PCR in thousands of nanoliter-sized droplets for each sample. PCR was performed within each droplet, which allowed for more sensitive detection of subtle changes in RNA concentration compared to traditional PCR or qPCR. Additionally, primers/probes specific to the 5′ end of the RNA/cDNA transcript(s) were used to assess fragment integrity, i.e. degraded RNA had fewer 5′ positive droplets. The BioRad QX200 Droplet Digital PCR System was used for the ddPCR workflow.
RNA samples (Chi18 or HCV IRES) were diluted to 100 fg/µL in 50 mM Tris buffer pH 11.4. Boron compounds were tested in a dose-response format to determine EC50. A compound dilution plate that contained a 30 mM top concentration of compound in DMSO was serially (half-log) diluted 10 times. A quantity of 0.12 µL of this compound dilution plate was spotted into a 96-well PCR plate (Thermo). Sample RNAs were added (6 µL) and incubated with test compounds as described below. Final compound concentrations ranged from 600 µM to 0.018 µM in 2% DMSO.
For the degradation reaction, treated RNAs were incubated for 16 hrs at 30° C. for Chi18 samples or 42° C. for HCV samples. Upon completion of the degradation reaction, cDNA was made and ddPCR run for each sample (96 well plates). Positive 5′ droplet values were divided by the total accepted droplet values for each sample and a ratio value generated for each sample.
Data was imported into a database where percent (%) protection and compound EC50 were calculated and curated. […] EC50 was determined by using a four parameter logistic equation: Y=A+((B-A)/(1+(C/X)D)); where Y is percent protection, X is compound concentration, A and B are minimum and maximum asymptotes, respectively, C is EC50, and D is Hill slope.

Broadly, the EC50 is the concentration needed to bring the measured effect to its halfway point. On to `CC(C)(C)OC(=O)NCCC[B-](F)(F)F` [PF-06934734, {3-[(tert-butoxycarbonyl)amino]propyl}(trifluorido)borate(1-)], for which the EC50 is 302 µM. `CN(C)c1cc(NC(=O)c2ccc3c(c2)B(O)OC3(C)C)c(O)c2c1C[C@H]1C[C@H]3[C@H](N(C)C)C(O)=C(C(N)=O)C(=O)[C@@]3(O)C(O)=C1C2=O` [PF-06967791, N-[(5aR,6aS,7S,1 OaS)-9-carbamoyl-4,7-bis(dimethylamino)-1,8,10a,11-tetrahydroxy-10,12-dioxo-5,5a,6,6a,7,10,10a,12-octahydrotetracen-2-yl]-1-hydroxy-3,3-dimethyl-1,3-dihydro-2,1-benzoxaborole-6-carboxamide]: the 50% effective concentration (EC50) worked out at 55.6 µM. Take `CN1CCN(Cc2ccc(B(Oc3cccc4cccnc34)c3ccc(C#N)c(Cl)c3)cc2)CC1` [PF-06956831, quinolin-8-yl (3-chloro-4-cyanophenyl){4-[(4-methylpiperazin-1-yl)methyl]phenyl}borinate]: the concentration giving a half-maximal response (EC50) was 242 µM. For the compound `C=C(CN(C)Cc1ccccc1)[B-](F)(F)F` [PF-06840997, {3-[benzyl(methyl)amino]prop-1-en-2-yl}(trifluorido)borate(1-)], the EC50 came to 306 µM. On to `C[C@H]1c2ccc(NC(=O)CCC(=O)Nc3ccc4c(c3)B(O)OC4)c(O)c2C(=O)C2=C(O)[C@]3(O)C(=O)C(C(N)=O)=C(O)[C@@H](N(C)C)[C@@H]3[C@@H](O)[C@@H]21` [PF-06968256, N-1-[(5R,5aR,6S,6aR,7S,10aS)-9-carbamoyl-7-(dimethylamino)-1,6,8,10a,11-pentahydroxy-5-methyl-10,12-dioxo-5,5a,6,6a,7,10,10a,12-octahydrotetracen-2-yl]-N~4~-(1-hydroxy-1,3-dihydro-2,1-benzoxaborol-6-yl)butanediamide], for which the concentration for a half-maximal effect (EC50) was found to be 75.7 µM. Consider `C[C@H]1c2ccc(NCCC(=O)Nc3cc4c5c(c3)OCCOB5OC4)c(O)c2C(=O)C2=C(O)[C@]3(O)C(=O)C(C(N)=O)=C(O)[C@@H](N(C)C)[C@@H]3[C@@H](O)[C@@H]21` [PF-06968542, (4S,4aR,5S,5aR,6R,12aS)-9-({3-[(2,3-dihydro-7H-[1,2]oxaborolo[4,3,2-jk][2,5,1]benzodioxaborepin-9-yl)amino]-3-oxopropyl}amino)-4-(dimethylamino)-3,5,10,12,12a-pentahydroxy-6-methyl-1,11-dioxo-1,4,4a,5,5a,6,11,12a-octahydrotetracene-2-carboxamide], for which the EC50 turned out to be 126 µM. For the compound `Clc1cc2c(cc1Cl)OB(c1ccc(Br)cc1)O2` [PF-04009301, 2-(4-bromophenyl)-5,6-dichloro-2H-1,3,2-benzodioxaborole], the EC50 is 474 µM.

On to `CN1CCN(Cc2ccc([B@@-]3(c4ccc(C#N)cc4)Oc4cccc5ccc[n+]3c45)cc2Cl)CC1` [PF-06956838, {3-chloro-4-[(4-methylpiperazin-1-yl)methyl]phenyl}(4-cyanophenyl)(quinolin-8-olato-kappa-2-N,O)boron], for which the EC50 came out at 207 µM.

Turning to `CN1CCN(Cc2cccc([B@@-]3(c4ccc(F)cc4)Oc4cccc5ccc[n+]3c45)c2)CC1` [PF-06956810, (4-fluorophenyl){3-[(4-methylpiperazin-1-yl)methyl]phenyl}(quinolin-8-olato-kappa-2-N,O)boron], the EC50 is 140 µM.

Regarding `C[C@H]1c2ccc(NC(=O)CNc3ccc4c(c3)B(O)OC4(C)C)c(O)c2C(=O)C2=C(O)[C@]3(O)C(=O)C(C(N)=O)=C(O)[C@@H](N(C)C)[C@@H]3[C@@H](O)[C@@H]21` [PF-06968306, (4S,4aR,5S,5aR,6R,12aS)-4-(dimethylamino)-3,5,10,12,12a-pentahydroxy-9-{[N-(1-hydroxy-3,3-dimethyl-1,3-dihydro-2,1-benzoxaborol-6-yl)glycyl]amino}-6-methyl-1,11-dioxo-1,4,4a,5,5a,6,11,12a-octahydrotet racene-2-carboxamide], the EC50 turned out to be 234 µM. Turning to `C[C@H]1c2ccc(NC(=O)c3ccc4c(c3)B(O)OC4(C)C)c(O)c2C(=O)C2=C(O)[C@]3(O)C(=O)C(C(N)=O)=C(O)[C@@H](N(C)C)[C@@H]3[C@@H](O)[C@@H]21` [PF-06968101, N-[(5R,5aR,6S,6aR,7S,10aS)-9-carbamoyl-7-(dimethylamino)-1,6,8,10a,11-pentahydroxy-5-methyl-10,12-dioxo-5,5a,6,6a,7,10,10a,12-octahydrotetracen-2-yl]-1-hydroxy-3,3-dimethyl-1,3-dihydro-2,1-benzoxaborole-6-carboxamide], the EC50 was 162 µM. For the compound `C[C@H]1c2ccc(NC(=O)CCC(=O)NC[C@H]3CCB(O)O3)c(O)c2C(=O)C2=C(O)[C@]3(O)C(=O)C(C(N)=O)=C(O)[C@@H](N(C)C)[C@@H]3[C@@H](O)[C@@H]21` (racemic) [PF-06968488, N~1~-[(5RS,5aRS,6SR,6aRS,7S R,10aSR)-9-carbamoyl-7-(dimethylamino)-1,6,8,10a,11-pentahydroxy-5-methyl-10,12-dioxo-5,5a,6,6a,7,10,10a,12-octahydrotetracen-2-yl]-N~4~-{[(5RS)-2-hydroxy-1,2-oxaborolan-5-y I]methyl}butanediamide], the EC50 worked out at 189 µM. For the compound `C[C@H]1c2ccc(NCC(=O)Nc3ccc4c(c3)B(O)OC4)c(O)c2C(=O)C2=C(O)[C@]3(O)C(=O)C(C(N)=O)=C(O)[C@@H](N(C)C)[C@@H]3[C@@H](O)[C@@H]21` [PF-06968419, (4S,4aR,5S,5aR,6R,12aS)-4-(dimethylamino)-3,5,10,12,12a-pentahydroxy-9-({2-[(1-hydroxy-1,3-dihydro-2,1-benzoxaborol-6-yl)amino]-2-oxoethyl}amino)-6-methyl-1,11-dioxo-1,4,4a,5,5a,6,11,12a-octahydrotetr acene-2-carboxamide], the EC50 was 75.1 µM. Take `Cc1cc(CNc2nc(N3CCC[C@@H](c4ccccc4C)C3)nc3[nH]ccc23)on1` [PF-00838447, N-[(3-methyl-1,2-oxazol-5-yl)methyl]-2-[(3S)-3-(2-methylphenyl)piperidin-1-yl]-7H-pyrrolo[2,3-d]pyrimidin-4-amine]: the EC50 stood at 388 µM. In the case of `Cc1cc(C(=O)O)ccc1B1OC(C)(C)C(C)(C)O1` [PF-05417781, 3-methyl-4-(4,4,5,5-tetramethyl-1,3,2-dioxaborolan-2-yl)benzoic acid], the EC50 stood at 463 µM.

With `Cc1cc(Oc2ccnc(NCCN)n2)cc2c1C(CC(=O)O)OB2O` (stereo not shown) [PF-06959336, 2-(6-((2-((2-aminoethyl)amino)pyrimidin-4-yl)oxy)-1-hydroxy-4-methyl-1,3-dihydrobenzo[c][1,2]oxabor ol-3-yl)acetic acid], the EC50 amounted to 114 µM. As to `C[C@H]1c2c(NC(=O)c3ccc4c(c3)B(O)OC4)ccc(O)c2C(=O)C2=C(O)[C@]3(O)C(=O)C(C(N)=O)=C(O)[C@@H](N(C)C)[C@@H]3[C@@H](O)[C@@H]21` [PF-06968384, N-[(6aS,10S,10aR,11S,11aR, 12R)-8-carbamoyl-10-(dimethylamino)-4,6,6a,9,11-pentahydroxy-12-methyl-5,7-dioxo-5,6a,7,10,10a,11,11a,12-octahydrotetracen-1-yl]-1-hydroxy-1,3-dihydro-2,1-benzoxaborole-6-car boxamide], the EC50 came out at 281 µM. For the compound `CN(C)/C(O)=C/C1=[O+][B-](F)(F)OC=C1c1ccccc1` [PF-03696713, [(1Z)-1-(dimethylamino)-1-hydroxy-5-(hydroxy-kappaO)-4-phenylpenta-1,4-dien-3-onato-kappaO](difluorido)boron], the EC50 was 400 µM.

Consider `C[C@H]1c2ccc(NCCC(=O)Nc3ccc4c(c3)B(O)OCC4)c(O)c2C(=O)C2=C(O)[C@]3(O)C(=O)C(C(N)=O)=C(O)[C@@H](N(C)C)[C@@H]3[C@@H](O)[C@@H]21` [PF-06968237, (4S,4aR,5S,5aR,6R,12aS)-4-(dimethylamino)-3,5,10,12,12a-pentahydroxy-9-({3-[(1-hydroxy-3,4-dihydro-1H-2,1-benzoxaborinin-7-yl)amino]-3-oxopropyl}amino)-6-methyl-1,11-dioxo-1,4,4a,5,5a,6,11,12a-octahyd rotetracene-2-carboxamide], for which the EC50 came to 166 µM. In the case of `OB(c1ccc(Cl)cc1)c1ccc(Cl)cc1` [PF-05690484, bis(4-chlorophenyl)borinic acid], the 50% effective concentration (EC50) is 355 µM. In the case of `BBBBBBBBBB1C(Cc2ccc(O)cc2)=C1Cc1ccc(O)cc1` [PF-01914444, 4,4′-{[1-(nonaboran-1-yl)-1H-borirene-2,3-diyl]bis(methylene)}diphenol], the EC50 stood at 488 µM.

As for `CN(C)Cc1ccc(B(Oc2cccc3cccnc23)c2cccc(C#N)c2)cc1Cl` [PF-06956816, quinolin-8-yl {3-chloro-4-[(dimethylamino)methyl]phenyl}(3-cyanophenyl)borinate], the concentration for a half-maximal effect (EC50) is 137 µM.

The values above are taken from patent US20230340530A1, “Methods of Protecting RNA” (Pfizer Inc., priority 2020, published 2023).
